Data published in patent publication US7868026B2, “Therapeutic compounds” (Pfizer Inc., priority 2005, dated 2011).
Like-named read-outs stand apart in the source and are kept apart here.

What was measured:
Type in all cases: biochemical
[1] = biological target: T1, CYP3A4 (Homo sapiens, UniProt P08684); experiment: Determination of compound Kiapp against recombinant CYP3A4 enzyme (BFC fluorescent substrate)
How it was run: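 Recombinant CYP3A4 (5.5 or 8 nM, with or without b5 depending on source) pre-incubated with inhibitor ≥30 min at room temperature in 100 mM sodium phosphate pH 7.0, 5 mM TCEP, 2% DMF. Reaction started with 200 uM NADPH and 5 uM BFC; initial fluorescence rates over 5 min fitted to Morrison tight-binding (non-partial) or Szedlacsek (partial) equations for Kiapp.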

[2] = biological target: T1, CYP3A4; experiment: Determination of IC50 against CYP3A4 by measurement of inhibition of testosterone metabolism (human liver microsomes, 6-β-OH-testosterone by LC-MS/MS); design: 0.1 mg/mL human liver microsomes; conditions: read-out: IC50 (Testo.)
Description: 2. Determination of IC50 Against CYP3A4 by Measurement of Inhibition of Testosterone Metabolism
This assay was performed using a standard 96 well plate design. […] The incubation substrate mix contains 25 μM testosterone, 0.1 mg/mL human liver microsomes, 1 mM NADPH, and potassium phosphate buffer (100 mM, pH 7.4). Quantitation of metabolite peak area ratio against an internal standard is determined by LC-MS/MS analysis. The production of 6-β-OH-testosterone from testosterone metabolism is determined after incubation for eight minutes by comparison to a standard curve generated for the metabolite
Samples were analyzed in the MRM mode using a Sciex API 3000 mass spectrometer (Applied Biosystems, Foster City, Calif.) with a Paradigm MS4 binary pump (Michrom BioResources Inc., Auburn, Calif.) and a LEAP CTC PAL autosampler (LEAP Technologies, Carrboro, N.C.). A Phenomenex Synergi, 4μ, Polar-RP, 10×2.0 mm column (Phenomenex, Torrance, Calif.) was used for separation with a mobile phase composition of: 0.1% formic acid in water (A) and: 0.1% formic acid in methanol (B). The following gradient was used: […]
The sample injection volume was 10 μL and flow was split post-column with 0.4 mL/min going to the mass spectrometer. Analysis was performed using the following API 3000 mass spectrometer settings: […]

[3] = biological target: T1, CYP3A4; experiment: Determination of IC50 against CYP3A4 by measurement of inhibition of midazolam metabolism (human liver microsomes, 1-hydroxymidazolam by LC-MS/MS); design: 0.1 mg/mL human liver microsomes; conditions: 2 μM midazolam, 0.1 mg/mL human liver microsomes
How it was run: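 Human liver microsomes (0.1 mg/mL) incubated 8 min with 2 μM midazolam and 1 mM NADPH in 100 mM potassium phosphate, pH 7.4. 1-Hydroxymidazolam quantified by LC-MS/MS (MRM) as peak area ratio to internal standard against a metabolite standard curve.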

[4] = Baculo. enzyme preparation, read-out: Kiapp (BFC, Baculo.)
[5] = Super. enzyme preparation, read-out: Kiapp (BFC, Super.)

T1 sequence (P08684 whole entry): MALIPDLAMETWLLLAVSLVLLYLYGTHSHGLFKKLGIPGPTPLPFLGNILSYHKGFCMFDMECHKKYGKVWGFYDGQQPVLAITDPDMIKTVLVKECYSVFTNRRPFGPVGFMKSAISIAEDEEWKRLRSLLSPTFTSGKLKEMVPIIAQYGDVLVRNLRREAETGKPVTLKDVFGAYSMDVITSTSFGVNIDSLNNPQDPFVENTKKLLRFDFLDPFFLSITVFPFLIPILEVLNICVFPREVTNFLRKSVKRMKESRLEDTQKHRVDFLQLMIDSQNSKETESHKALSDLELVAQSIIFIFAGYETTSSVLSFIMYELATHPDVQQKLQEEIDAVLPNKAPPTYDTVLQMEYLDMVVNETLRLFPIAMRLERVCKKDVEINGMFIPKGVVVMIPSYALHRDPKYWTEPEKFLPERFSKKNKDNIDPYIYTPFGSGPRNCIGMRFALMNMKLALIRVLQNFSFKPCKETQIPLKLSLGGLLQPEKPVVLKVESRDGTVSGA

SMILES	Ki [1, 4] [nM]	IC50 [2] [nM]	IC50 [3] [nM]	Ki [1, 5] [nM]
CCCCCN(C)C(=O)c1ccccc1S(=O)(=O)Nc1cccnc1 [Example 47, N-methyl-N-pentyl-2-[(pyridin-3-ylamino)sulfonyl]benzamide]	332	30	26	–
O=C(NCC1CC1)c1ccccc1S(=O)(=O)Nc1cccnc1 [Example 48, N-(cyclopropylmethyl)-2-[(pyridin-3-ylamino)sulfonyl]benzamide]	> 1000	335	327	–
CC(C)NC(=O)c1ccccc1S(=O)(=O)Nc1cccnc1 [Example 49, N-isopropyl-2-[(pyridin-3-ylamino)sulfonyl]benzamide]	> 1000	> 500	328	–
CCCNC(=O)c1ccccc1S(=O)(=O)Nc1cccnc1 [Example 50, N-propyl-2-[(pyridin-3-ylamino)sulfonyl]benzamide]	> 1000	371	254	–
O=C(NCc1cccc2[nH]ccc12)c1ccccc1S(=O)(=O)Nc1cccnc1 [Example 52, N-(1H-indol-4-ylmethyl)-2-[(pyridin-3-ylamino)sulfonyl]benzamide]	560	73	27	–
CCCN(CC1CC1)C(=O)c1ccccc1S(=O)(=O)Nc1cccnc1 [Example 54, N-(cyclopropylmethyl)-N-propyl-2-[(pyridin-3-ylamino)sulfonyl]benzamide]	239	26	15	–
CN(Cc1ccccc1)C(=O)c1ccccc1S(=O)(=O)Nc1cccnc1 [Example 55, N-benzyl-N-methyl-2-[(pyridin-3-ylamino)sulfonyl]benzamide]	385	54.5	40.6	14.2
O=C(NCCOc1ccccc1)c1ccccc1S(=O)(=O)Nc1cccnc1 [Example 56, N-(2-phenoxyethyl)-2-[(pyridin-3-ylamino)sulfonyl]benzamide]	340	62	48.9	22.4
O=C(NC1Cc2ccccc2C1)c1ccccc1S(=O)(=O)Nc1cccnc1 [Example 58, N-(2,3-dihydro-1H-inden-2-yl)-2-[(pyridin-3-ylamino)sulfonyl]benzamide]	150	25.3	26.5	9.1
CCCCOCCCNC(=O)c1ccccc1S(=O)(=O)Nc1cccnc1 [Example 59, N-(3-butoxypropyl)-2-[(pyridin-3-ylamino)sulfonyl]benzamide]	838	117	109	57.4

Next, values leading:

Ki [1, 4] [nM]	IC50 [2] [nM]	IC50 [3] [nM]	Ki [1, 5] [nM]	SMILES
325	23	23	–	COc1cccc(CNC(=O)c2ccccc2S(=O)(=O)Nc2cccnc2)c1 [Example 46, N-(3-methoxybenzyl)-2-[(pyridin-3-ylamino)sulfonyl]benzamide]
680	57	34	–	COc1cc(CNC(=O)c2ccccc2S(=O)(=O)Nc2cccnc2)cc(OC)c1 [Example 51, N-(3,5-dimethoxybenzyl)-2-[(pyridin-3-ylamino)sulfonyl]benzamide]
613	49	24	–	COc1ccc(CNC(=O)c2ccccc2S(=O)(=O)Nc2cccnc2)c(OC)c1 [Example 53, N-(2,4-dimethoxybenzyl)-2-[(pyridin-3-ylamino)sulfonyl]benzamide]
353	93.3	69.6	35	COc1ccc(CNC(=O)c2ccccc2S(=O)(=O)Nc2cccnc2)cc1 [Example 57, N-(4-methoxybenzyl)-2-[(pyridin-3-ylamino)sulfonyl]benzamide]
151	24	17	–	COc1cccc(CCNC(=O)c2ccccc2S(=O)(=O)Nc2cccnc2)c1 [Example 60, N-[2-(3-methoxyphenyl)ethyl]-2-[(pyridin-3-ylamino)sulfonyl]benzamide]
